Data on 99 sequences can be found in the OligoGym collection.

“And” between values parts separate entries of the source, which are not always exact repeats. Equal values may be shown once. After the bases stand the sugars from the 5' end (letter, count) and the backbone: PS all phosphorothioate, else s phosphorothioate and o phosphodiester by linkage. Methylation of C is not given here. k = constrained ethyl (cEt); d = 2'-deoxy (DNA)

In this data set the target is MALAT1. The conditions noted are these: ASO, A431, 0.005 µM.
For TAAATTACACCAGTCC (sugars k3 d10 k3, PS), the target mRNA inhibition was 44%.
As to TAAATTGATGGGCTTT (sugars k3 d10 k3, PS), the target mRNA inhibition was determined as 37%.
TAACAGCACATCATGC (sugars k3 d10 k3, PS): the target mRNA inhibition was found to be 21%.
For the sequence TAACATGCAATACTGC (sugars k3 d10 k3, PS), the target mRNA inhibition was 18%.
Regarding TAACCTATTGACTATA (sugars k3 d10 k3, PS), the target mRNA inhibition was 22%.
Take TAAGAGACATTCAAGC (sugars k3 d10 k3, PS): the target mRNA inhibition amounted to 17%.
The figure for TAAGATGCTAGCTTGG (sugars k3 d10 k3, PS) is 25%; for TAAGCAATATCTTAGT (sugars k3 d10 k3, PS) it is 16%; for TAAGGAGACAGCTTTC (sugars k3 d10 k3, PS) it is 16%.
Regarding TAAGTTTTCAGCAGTA (sugars k3 d10 k3, PS), the target mRNA inhibition is -14%.
Regarding TACAAAACGAATTCAG (sugars k3 d10 k3, PS), the target mRNA inhibition came out at 20%.
For TACAAACTGCTTACAG (sugars k3 d10 k3, PS), the target mRNA inhibition was 39%.
For the sequence TACAATCAAGTCAAGC (sugars k3 d10 k3, PS), the target mRNA inhibition is -2%.
Consider TACACTCCTTCTCTAA (sugars k3 d10 k3, PS), for which the target mRNA inhibition was -18%.
The figure for TACAGAAGTCTCGGGC (sugars k3 d10 k3, PS) is 28%; for TACCAACCACTCGCTT (sugars k3 d10 k3, PS) it is 1%; for TACCCCAACTAAACAT (sugars k3 d10 k3, PS) it is 18%.
Take TACTATTGTCCCATAA (sugars k3 d10 k3, PS): the target mRNA inhibition was 22%.
With TACTCCAAGCATTGGG (sugars k3 d10 k3, PS), the target mRNA inhibition was 0%.
Take TACTCTTGATCTTGAA (sugars k3 d10 k3, PS): the target mRNA inhibition worked out at 46%.
The value for TACTGGTTTAAGTTGG (sugars k3 d10 k3, PS) was 67% and 77%; that for TACTTAGCTGTGGTTT (sugars k3 d10 k3, PS) was 23%; that for TACTTCATTACCCCAA (sugars k3 d10 k3, PS) was 34%.
Regarding TACTTGCCAACAGAAC (sugars k3 d10 k3, PS), the target mRNA inhibition turned out to be 19%.
For the sequence TACTTTAAGCCTTCGG (sugars k3 d10 k3, PS), the target mRNA inhibition amounted to 29%.
Turning to TAGAATCTTACTTGAT (sugars k3 d10 k3, PS), the target mRNA inhibition came to 34%.
As for TAGACGGAGAACAACT (sugars k3 d10 k3, PS), the target mRNA inhibition amounted to 29%.
As for TAGAGCTACTTAGCTG (sugars k3 d10 k3, PS), the target mRNA inhibition is 18%.
Regarding TAGATTCCGTAACTTT (sugars k3 d10 k3, PS), the target mRNA inhibition was found to be 58%.
Take TAGCAGTAACATCTGA (sugars k3 d10 k3, PS): the target mRNA inhibition came to 46%.
The figure for TAGGCCATCATACTGC (sugars k3 d10 k3, PS) is 6%; for TAGGTATAGTTTACCA (sugars k3 d10 k3, PS) it is 2%.
The figure for TAGTAACCTATTGACT (sugars k3 d10 k3, PS) is -36%.
For the sequence TAGTAGCTTTTTGATG (sugars k3 d10 k3, PS), the target mRNA inhibition stood at 31%.
Regarding TAGTCTGAAGAATACC (sugars k3 d10 k3, PS), the target mRNA inhibition was 23%.
TAGTTAATGTCAGCCC (sugars k3 d10 k3, PS): the target mRNA inhibition was found to be 41%.
TAGTTGGCATCAAGGC (sugars k3 d10 k3, PS): the target mRNA inhibition is 72% and 69%.
TATAGACCCCTGACTT (sugars k3 d10 k3, PS): the target mRNA inhibition worked out at 42%.
The value for TATAGACGGAGAACAA (sugars k3 d10 k3, PS) was 30%; that for TATAGCATCTGTGGAA (sugars k3 d10 k3, PS) was 20%.
For TATATAAGGTCAATAG (sugars k3 d10 k3, PS), the target mRNA inhibition was determined as 5%.
Consider TATATTTAAGGCCTTC (sugars k3 d10 k3, PS), for which the target mRNA inhibition was 45%.
As to TATCAATTCACCAAGG (sugars k3 d10 k3, PS), the target mRNA inhibition came out at 1%.
Take TATCACTCAGCTGGAT (sugars k3 d10 k3, PS): the target mRNA inhibition turned out to be 34%.
For TATCTTCACCACGAAC (sugars k3 d10 k3, PS), the target mRNA inhibition was determined as 0%.
The value for TATGACACTTTCCTTG (sugars k3 d10 k3, PS) was 25%; that for TATTAAGAGCTGCTAT (sugars k3 d10 k3, PS) was 25%.
The value for TATTCCTTTCATAGAG (sugars k3 d10 k3, PS) was 11%; that for TATTGGAAAACTTAAC (sugars k3 d10 k3, PS) was 26%.
As to TCAACAATCACTACTC (sugars k3 d10 k3, PS), the target mRNA inhibition came to 16%.
Take TCAACATTTGGCCTAC (sugars k3 d10 k3, PS): the target mRNA inhibition stood at 21%.
Consider TCAAGCATTCCTTCGG (sugars k3 d10 k3, PS), for which the target mRNA inhibition was 73% and 67%.
With TCAAGGCACTGATCAC (sugars k3 d10 k3, PS), the target mRNA inhibition worked out at 49%.
Take TCAATCACAAATACGA (sugars k3 d10 k3, PS): the target mRNA inhibition came to 30%.
As to TCAATTTATAGACCCC (sugars k3 d10 k3, PS), the target mRNA inhibition came to 47%.
Turning to TCACAAGGCAAATCGC (sugars k3 d10 k3, PS), the target mRNA inhibition was 7%.
On to TCACCAAATCGCACTG (sugars k3 d10 k3, PS), for which the target mRNA inhibition stood at 20%.
The value for TCACCTTCGGTTTAAT (sugars k3 d10 k3, PS) was 28%; that for TCAGACCTTCTGAACC (sugars k3 d10 k3, PS) was -6%; that for TCAGGGTTATGCTTAT (sugars k3 d10 k3, PS) was 64% and 59%.
As for TCATTGGGAGTTACTT (sugars k3 d10 k3, PS), the target mRNA inhibition amounted to 57%.
Turning to TCCAAGAACTAGCACC (sugars k3 d10 k3, PS), the target mRNA inhibition is -5%.
For TCCACCCCCACGCCAA (sugars k3 d10 k3, PS), the target mRNA inhibition is -9%.
Turning to TCCACTTGATCCCAAC (sugars k3 d10 k3, PS), the target mRNA inhibition was 47% and 56%.
Take TCCAGGACTTGGCAGT (sugars k3 d10 k3, PS): the target mRNA inhibition is 23%.
Regarding TCCAGTCTACAAGTTA (sugars k3 d10 k3, PS), the target mRNA inhibition is 31%.
The figure for TCCCAACCGTAACAGG (sugars k3 d10 k3, PS) is 2%; for TCCCCAATCAAGATTT (sugars k3 d10 k3, PS) it is 18%; for TCCCTGAAGGTGTTCG (sugars k3 d10 k3, PS) it is 18%.
The figure for TCCCTTTACACCTCAG (sugars k3 d10 k3, PS) is 25%; for TCCTACCACTCCCAAT (sugars k3 d10 k3, PS) it is 30%; for TCCTAGCTTCACCACC (sugars k3 d10 k3, PS) it is 44%.
Turning to TCCTGATCTGGTCCAT (sugars k3 d10 k3, PS), the target mRNA inhibition worked out at 42%.
In the case of TCCTGCGACTTGCTCC (sugars k3 d10 k3, PS), the target mRNA inhibition was determined as 15%.
TCCTTAGTTGGCATCA (sugars k3 d10 k3, PS): the target mRNA inhibition is 76% and 68%.
For the sequence TCCTTCGGATGCTTCA (sugars k3 d10 k3, PS), the target mRNA inhibition was found to be 56%.
Regarding TCGATGGAAAAATTTC (sugars k3 d10 k3, PS), the target mRNA inhibition was determined as 30%.
Consider TCGCAGACAAAGTTTC (sugars k3 d10 k3, PS), for which the target mRNA inhibition came to 31%.
TCGCATCACCGGAATT (sugars k3 d10 k3, PS): the target mRNA inhibition is 4%.
For the sequence TCGCCTTCAAATTATT (sugars k3 d10 k3, PS), the target mRNA inhibition amounted to 35%.
The value for TCGGATGCTTCACTCC (sugars k3 d10 k3, PS) was 37%.
As for TCTAAAAGCATTGCCC (sugars k3 d10 k3, PS), the target mRNA inhibition turned out to be 29%.
Consider TCTAACAGCACATCAT (sugars k3 d10 k3, PS), for which the target mRNA inhibition was 22%.
With TCTAAGATTGTAAGCA (sugars k3 d10 k3, PS), the target mRNA inhibition was found to be 53%.
The figure for TCTAATAGCAGCGGGA (sugars k3 d10 k3, PS) is 16%.
Regarding TCTACAAGTTACATGT (sugars k3 d10 k3, PS), the target mRNA inhibition worked out at 23%.
The value for TCTCAATTTGGCTATC (sugars k3 d10 k3, PS) was 29%.
The value for TCTCAGGGTTATGCTT (sugars k3 d10 k3, PS) was 59% and 81%.
Take TCTCATACACTCACTA (sugars k3 d10 k3, PS): the target mRNA inhibition came to 11%.
Turning to TCTCATTTATTTCGGC (sugars k3 d10 k3, PS), the target mRNA inhibition was 79% and 93%.
On to TCTCCAATGGACATCT (sugars k3 d10 k3, PS), for which the target mRNA inhibition stood at 8%.
Consider TCTCCGAAGACACAGA (sugars k3 d10 k3, PS), for which the target mRNA inhibition stood at 0%.
In the case of TCTGATCTGCGGCCCC (sugars k3 d10 k3, PS), the target mRNA inhibition is -18%.
Take TCTGCGGTTTCCTCAA (sugars k3 d10 k3, PS): the target mRNA inhibition is 49%.
The figure for TCTTAACAGCTTATGG (sugars k3 d10 k3, PS) is 31%; for TCTTAACTCAAAGTCC (sugars k3 d10 k3, PS) it is 39%.
Consider TCTTAATCAGTTACAA (sugars k3 d10 k3, PS), for which the target mRNA inhibition worked out at 9%.
Take TCTTACTTGATAATAC (sugars k3 d10 k3, PS): the target mRNA inhibition stood at 10%.
The figure for TCTTGAATTACTTCCG (sugars k3 d10 k3, PS) is 76% and 55%.
